Assay results: patent US20240239811A1, “5-(5-(PIPERIDIN-4-YL)THIENO[3,2-C]PYRAZOL-2-YL]INDAZOLE DERIVATIVES AND RELATED COMPOUNDS AS MODULATORS FOR SPLICING NUCLEIC ACIDS AND FOR THE T” (REMIX THERAPEUTICS INC., priority 2020, published 2024)
Counter-ions that a name gives are not always drawn.

Experiments:
Assay type in all cases: cell-based
Target C CJ mRNA = assay: Gene panel canonical junction qPCR assay, Target C; conditions: Table 6, decrease in CJ mRNA, read-out: Target C IC50 (decrease in CJ mRNA levels)
Protocol: (§1) Compounds described herein were used to modulate RNA transcript abundance in cells. The expression of a target mRNA was measured by detecting the formation of an exon-exon junction in the canonical transcript (CJ). A compound mediated exon-inclusion event was detected by observing an increase in formation of a new junction with an alternative exon (AJ). Real-time qPCR assays were used to detect these splicing switches and interrogate the potency of various compounds towards different target genes. A high-throughput real time quantitative PCR (RT-qPCR) assay was developed to measure these two isoforms of the mRNA (CJ and AJ) for an exemplary gene, HTT, together with a control housekeeping gene, GAPDH or GUSB or PPIA, used for normalization. Briefly, the A673 or K562 cell line was treated with various compounds described herein (e.g., compounds of Formula (I)). After treatment, the levels of the HTT mRNA targets were determined from each sample of cell lysate by cDNA synthesis followed by qPCR.
(§2) The A673 cell line was cultured in DMEM with 10% FBS. Cells were diluted with full growth media and plated in a 96-well plate (15,000 cells in 100ul media per well). The plate was incubated at 37° C. with 5% CO2 for 24 hours to allow cells to adhere. An 11-point 3-fold serial dilution of the compounds was made in DMSO then diluted in media in an intermediate plate. Compounds were transferred from the intermediate plate to the cell plate with the top dose at a final concentration of 10 uM in the well. Final DMSO concentration was kept at or below 0.25%. The cell plate was returned to the incubator at 37° C. with 5% CO2 for an additional 24 hours.
(§3) The K562 cell line was cultured in IMDM with 10% FBS. For K562, cells were diluted with full growth media and plated in either a 96-well plate (50,000 cells in 50 uL media per well) or a 384-well plate (8,000-40,000 cells in 45 uL media per well). An 11-point 3-fold serial dilution of the compounds were made in DMSO then diluted in media in an intermediate plate. Compound was transferred from the intermediate plate to the cell plate with the top dose at a final concentration of 10 uM in the well. Final DMSO concentration was kept at or below 0.25%. Final volume was 100 uL for 96-well plate and 50 uL for 384-well plate. The cell plate was then placed in an incubator at 37° C. with 5% CO2 for 24 hours.
(§4) The data analysis was performed by first determining the ΔCt vs the housekeeper gene. This ΔCt was then normalized against the DMSO control (ΔΔCt) and converted to RQ (relative quantification) using the 2^(−ΔΔCt) equation. The RQ were then converted to a percentage response by arbitrarily setting an assay window of 3.5 ΔCt for HTT-CJ and an assay window of 9 ΔCt for HTT-AJ. […] The percentage response was then fitted to the 4 parametric logistic equation to evaluate the concentration dependence of compound treatment. The increase in AJ mRNA is reported as AC50 (compound concentration having 50% response in AJ increase) while the decrease in CJ mRNA levels is reported as IC50 (compound concentration having 50% response in CJ decrease).
(§5) Additional studies were carried out for a larger panel of genes using the protocol provided above. The junction between flanking upstream and downstream exons was used to design canonical junction qPCR assays. At least one of the forward primer, reverse primer or the CY5-labeled 5′ nuclease probe (with 3′ quencher such as ZEN/Iowa Black FQ) was designed to overlap with the exon junction to capture the CJ mRNA transcript. BLAST was used to confirm the specificity of the probeset and parameters such as melting temperature, GC content, amplicon size, and primer dimer formation are considered during their design. Data for the decrease in CJ mRNA levels for three exemplary genes (HTT, SMN2, and Target C) analyzed in this panel are reported as IC50 (compound concentration having […] in CJ decrease).

HTT mRNA = assay: Splicing assay (RT-qPCR) monitoring HTT splice variants, canonical (CJ) and alternative (AJ) junction; conditions: 50% response, A673 or K562 cell line, 24 hours; for IC50: decrease in CJ mRNA; for AC50: increase in AJ mRNA
Protocol: as §1
• Cells-to-CT 1-step kit: ThermoFisher A25602, Cells-to-CT lysis reagent: ThermoFisher 4391851C, TaqMan™ Fast Virus 1-Step Master Mix: ThermoFisher 4444436 • GAPDH: VIC-PL, ThermoFisher 4326317E (Assay: Hs99999905_ml)—used for K562/suspension cell lines • GUSB: VIC-PL, ThermoFisher 4326320E (Assay: Hs99999908_ml)—used for K562/suspension cell lines • PPIA: VIC-PL, ThermoFisher 4326316E (Assay: Hs99999904_ml)—used for A673/adherent cell lines
as §2, §3
The cells were then gently washed with 50 uL-100 uL cold PBS before proceeding to addition of lysis buffer. 30 uL-50 uL of room temperature lysis buffer with DNAse I (and optionally RNAsin) was added to each well. Cells were shaken/mixed thoroughly at room temperature for 5-10 minutes for lysis to take place and then 3 uL-5 uL of room temperature stop solution was added and wells were shaken/mixed again. After 2-5 minutes, the cell lysate plate was transferred to ice for RT-qPCR reaction setup. The lysates could also be frozen at −80° C. for later use.
In some cases, a direct lysis buffer was used. An appropriate volume of 3X lysis buffer (10 mM Tris, 150 mM NaCl, 1.5%-2.5% Igepal and 0.1-1 U/uL RNAsin, pH 7.4) was directly added to either K562 or A673 cells in media and mixed by pipetting 3 times. The plates were then incubated at room temperature with shaking/rocking for 20-50 minutes to allow for lysis to take place. After this time, the cell lysate plate was transferred to ice to set up for the RT-qPCR reactions. The lysates could also be frozen at −80° C. for later use. […]

SMN2 CJ mRNA = assay: Gene panel canonical junction qPCR assay, SMN2; conditions: Table 6, decrease in CJ mRNA, read-out: SMN2 IC50 (decrease in CJ mRNA levels)
Protocol: as §1, §2, §3, §4, §5

HTT CJ mRNA = assay: Gene panel canonical junction qPCR assay, HTT; conditions: Table 6, decrease in CJ mRNA, read-out: HTT IC50 (decrease in CJ mRNA levels)
Protocol: as §1, §2, §3, §4, §5

SMILES	IC50 (Target C CJ mRNA)	IC50 (HTT mRNA)	IC50 (SMN2 CJ mRNA)	IC50 (HTT CJ mRNA)	AC50 (HTT mRNA)
Cn1cc2cc(-c3nc4sc(N5CCNCC5)c(Cl)c4s3)cc(F)c2n1 [Compound 147]	1 to 10 µM	0.1 to 1 µM	< 0.1 µM	0.1 to 1 µM	0.1 to 1 µM
Cc1cn2cc(-n3cc4cc(C5CCNCC5)sc4n3)cc(C)c2n1 [Compound 155]	1 to 10 µM	0.1 to 1 µM	< 0.1 µM	0.1 to 1 µM	0.1 to 1 µM
Cc1cn2cc(-n3cc4cc(C5CCNCC5)sc4n3)ncc2n1 [Compound 158]	0.1 to 1 µM	0.1 to 1 µM	0.1 to 1 µM	0.1 to 1 µM	0.1 to 1 µM
Cn1cc2cc(-c3cc4cn([C@@H]5CCNC5)nc4s3)cc(F)c2n1 [Compound 160, (R)-5-(7-fluoro-2-methyl-2H-indazol-5-yl)-2-(pyrrolidin-3-yl)-2H-thieno[2,3-c]pyrazole hydrochloride]	> 10 µM	1 to 10 µM	0.1 to 1 µM	1 to 10 µM	1 to 10 µM
Cn1cc2cc(-c3cc4cn(C5CCOCC5)nc4s3)cc(F)c2n1 [Compound 161, 7-fluoro-2-methyl-5-[2-(oxan-4-yl)thieno[2,3-c]pyrazol-5-yl] indazole]	> 10 µM	> 10 µM	> 10 µM	> 10 µM	> 10 µM
Cc1cn2nc(-c3cc4cn(C5CCNCC5)nc4s3)cc(C)c2n1 [Compound 162, 4-(5-{2,8-dimethylimidazo[1,2-b]pyridazin-6-yl}thieno[2,3-c]pyrazol-2-yl)piperidine]	0.1 to 1 µM	< 0.1 µM	< 0.1 µM	< 0.1 µM	< 0.1 µM
Cc1cn2nc(-n3cc4cc(C5CCNCC5)sc4n3)nc2c(C)n1 [Compound 163, 4-(2-{6,8-dimethyl-[1,2,4]triazolo [1,5-a]pyrazin-2-yl}thieno[2,3-c]pyrazol-5-yl)piperidine]	1 to 10 µM	1 to 10 µM	1 to 10 µM	1 to 10 µM	1 to 10 µM
Cc1cn2nc(-n3cc4cc(C5CCNCC5)sc4n3)cc2c(C)n1 [Compound 164]	1 to 10 µM	1 to 10 µM	1 to 10 µM	1 to 10 µM	1 to 10 µM

Second part, led by results:

IC50 (Target C CJ mRNA)	IC50 (HTT mRNA)	IC50 (SMN2 CJ mRNA)	IC50 (HTT CJ mRNA)	SMILES	AC50 (HTT mRNA)
0.1 to 1 µM	< 0.1 µM	< 0.1 µM	< 0.1 µM	CCN1CCC(n2cc3cc(-c4cc(F)c5nn(C)cc5c4)sc3n2)CC1 [Compound 149, 5-[2-(1-ethylpiperidin-4-yl)thieno[2,3-c]pyrazol-5-yl]-7-fluoro-2-methylindazole]	< 0.1 µM
0.1 to 1 µM	0.1 to 1 µM	< 0.1 µM	0.1 to 1 µM	CN1CCC(n2cc3cc(-c4cc(F)c5nn(C)cc5c4)sc3n2)CC1 [Compound 150, 7-fluoro-2-methyl-5-[2-(1-methylpiperidin-4-yl)thieno[2,3-c]pyrazol-5-yl]indazole]	0.1 to 1 µM
< 0.1 µM	< 0.1 µM	< 0.1 µM	< 0.1 µM	CN1CCC(c2cc3sc(-c4cc(F)c5nn(C)cc5c4)nc3s2)CC1 [Compound 151, 7-fluoro-2-methyl-5-[5-(1-methylpiperidin-4-yl)thieno[2,3-d][1,3]thiazol-2-yl]indazole]	< 0.1 µM
0.1 to 1 µM	0.1 to 1 µM	< 0.1 µM	0.1 to 1 µM	CN(C)C1CCN(c2cc3sc(-c4cc(F)c5nn(C)cc5c4)nc3s2)CC1 [Compound 154, 1-[2-(7-fluoro-2-methylindazol-5-yl)thieno[2,3-d][1,3]thiazol-5-yl]-N,N-dimethylpiperidin-4-amine]	0.1 to 1 µM
0.1 to 1 µM	< 0.1 µM	< 0.1 µM	< 0.1 µM	Cc1cn2cc(-n3cc4cc(C5CCNCC5)sc4n3)cc(F)c2n1 [Compound 156]	0.1 to 1 µM
0.1 to 1 µM	0.1 to 1 µM	< 0.1 µM	0.1 to 1 µM	Cc1nc2c(F)cc(-n3cc4cc(C5CCNCC5)sc4n3)cc2o1 [Compound 157]	0.1 to 1 µM
